What all share (format): cell-based
Test [1] concerns the target T1, mPanx1 (Mus musculus, UniProt Q9JIP4).
T1 construct: gene Panx1
Nature of the test: whole-cell patch clamp, CHO cells transfected with mPanx1, single dose […]. The note with it: read-out: I% ^a.

The target in test [2] is T1, mPanx1. Nature of the test: whole-cell patch clamp, CHO cells transfected with mPanx1, dose-response (IC50 low micromolar, number not given). The note with it: read-out: I% ^a.
The target in test [3] is T1, mPanx1. Nature of the test: whole-cell patch clamp, CHO cells transfected with mPanx1, dose-response.

SMILES strings stand for the structures.

T1 sequence (Q9JIP4 whole entry): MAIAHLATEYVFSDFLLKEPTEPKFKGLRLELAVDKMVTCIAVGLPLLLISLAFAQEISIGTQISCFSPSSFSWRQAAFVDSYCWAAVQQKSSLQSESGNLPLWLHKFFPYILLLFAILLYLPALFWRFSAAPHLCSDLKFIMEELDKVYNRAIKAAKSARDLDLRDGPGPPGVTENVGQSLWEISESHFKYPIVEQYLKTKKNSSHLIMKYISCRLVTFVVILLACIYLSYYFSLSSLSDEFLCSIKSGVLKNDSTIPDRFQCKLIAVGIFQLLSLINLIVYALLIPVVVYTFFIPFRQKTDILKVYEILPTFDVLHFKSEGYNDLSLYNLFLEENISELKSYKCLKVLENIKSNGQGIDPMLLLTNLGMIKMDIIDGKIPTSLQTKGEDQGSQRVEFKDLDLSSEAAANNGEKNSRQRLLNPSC

For `NS(=O)(=O)c1ccc2c(c1)c(=O)c(C(=O)O)cn2Cc1ccc(C(=O)O)cc1` [5b, 1-(4-Carboxybenzyl)-4-oxo-6-sulfamoyl-1,4-dihydroquinoline-3-carboxylic acid], on mPanx1 [1], the inhibition at 50 µM amounted to 48.8 ± 5.9%. Regarding `CCN(CC)S(=O)(=O)c1ccc2c(c1)c(=O)c(C(=O)O)cn2Cc1ccccc1` [12a, 1-Benzyl-6-(N,N-diethylsulfamoyl)-4-oxo-1,4-dihydroquinoline-3-carboxylic acid], the inhibition at 50 µM on mPanx1 [1] amounted to 54.6 ± 6%.

`CCN(CC)S(=O)(=O)c1ccc2c(c1)c(=O)c(C(=O)O)cn2Cc1ccc(C(=O)O)cc1` [12b, 1-(4-Carboxybenzyl)-6-(N,N-diethylsulfamoyl)-4-oxo-1,4-dihydroquinoline-3-carboxylic acid]: on mPanx1 [1], the inhibition at 50 µM was 73.2 ± 11.9%.

As for `CCN(CC)S(=O)(=O)c1ccc2c(c1)c(=O)c(C(=O)O)cn2Cc1ccc(S(N)(=O)=O)cc1` [12c, 6-(N,N-Diethylsulfamoyl)-4-oxo-1-(4-sulfamoylbenzyl)-1,4-dihydroquinoline-3-carboxylic acid], the inhibition at 50 µM on mPanx1 [1] worked out at 49.5 ± 6%.

As for `CCCN(CCC)S(=O)(=O)c1ccc2c(c1)c(=O)c(C(=O)O)cn2Cc1ccc(C(=O)O)cc1` [12e, 1-(4-Carboxybenzyl)-6-(N,N-dipropylsulfamoyl)-4-oxo-1,4-dihydroquinoline-3-carboxylic acid], the inhibition at 50 µM on mPanx1 [2] was found to be 84.8 ± 4.4%. For the compound `CCCN(CCC)S(=O)(=O)c1ccc2c(c1)c(=O)c(C(=O)O)cn2Cc1ccc(S(N)(=O)=O)cc1` [12f, 6-(N,N-Dipropylsulfamoyl)-4-oxo-1-(4-sulfamoylbenzyl)-1,4-dihydroquinoline-3-carboxylic acid], inhibition on mPanx1 [3] was half-maximal at 2700 nM (IC50).

Consider `CCCN(CCC)S(=O)(=O)c1ccc2c(c1)c(=O)c(C(=O)O)cn2CCc1ccccc1` [12g, 6-(N,N-Dipropylsulfamoyl)-4-oxo-1-phenethyl-1,4-dihydroquinoline-3-carboxylic acid], for which the inhibition at 50 µM at mPanx1 [1] stood at 57.2 ± 8.5%. `O=C(O)c1ccc(CN(Cc2ccc(C(=O)O)cc2)S(=O)(=O)c2ccc3c(c2)c(=O)c(C(=O)O)cn3Cc2ccc(C(=O)O)cc2)cc1` [compound 7, 4,4′-{[((3-carboxy-1-(4-carboxybenzyl)-4-oxo-1,4-dihydroquinolin-6-yl)sulfonyl)azanediyl]bis(methylene)} dibenzoic acid]: the inhibition at 50 µM on mPanx1 [2] was found to be 79.7 ± 7.2%.

(Values after publication PMC12114274, “Synthesis of 3-Carboxy-6-sulfamoylquinolones and Mefloquine-Based Compounds as Panx1 Blockers: Molecular Docking, Electrophysiological and Cell Culture Studies” (Molecules, 2025).)
